Measured values from US9012466B2, “Substituted tricyclic pyrazolo-pyrimidine compounds” (ArQule, Inc., priority 2013, dated 2015).

What was measured:
Full-length BTKC481S = target: T1, Full-length BTKC481S (Homo sapiens, UniProt Q06187, C481S); test: BTKC481S Kinase Activity Assay; assay type: biochemical; conditions: AlphaScreen, 60 μM ATP; test concentration not given
T1 construct: Full-length BTKC481S was diluted in assay buffer
Description: BTKC481S Kinase Activity Assay
Test inhibitors and controls (Staurosporine) were prepared in 10% DMSO at 10-fold the desired final concentration, and added to each well of a reaction plate (Corning 96-well half-area solid white nonbinding surface plate) in a volume of 2.5 μl. Full-length BTKC481S was diluted in assay buffer (50 mM Tris, pH 8.0, 0.02 mg/ml BSA, 10 mM MgCl2, 1 mM EGTA, 10% glycerol, 1 mM DTT, 1 mM β-glycerophosphate, and 1 mM NaF) and added to each well in a volume of 17.5 μl for a final concentration in the 25 μl reaction of 10 nM. After a 30 minute pre-incubation at room temperature, the kinase reaction was initiated by the addition of 5 μl of an activation mixture diluted in assay buffer containing biotinylated PLCγ2 peptide, and ATP for final concentrations of 125 nM biotinylated PLCγ2, and 60 μM ATP. The plates were incubated for 60 minutes at room temperature. The reactions were stopped in the dark by the addition of 10 μl stop/detection mixture prepared in assay buffer containing EDTA, Staurosporine and AlphaScreen™ Streptavidin Donor and anti-pTYR100 Acceptor beads. The final concentrations were 15 mM EDTA, 1 μM Staurosporine and 500 ng/well of both AlphaScreen™ (Amplified Luminescent Proximity Homogeneous Assay) technology donor and acceptor beads. Assay plates were incubated for 60 minutes at room temperature in the dark, and the plates were read on a Perkin Elmer Envision Multilabel plate reader (excitation wavelength: […], emission wavelength: 570 nm).

TMD-8 = test: Anti Proliferation Assay (MTS), TMD-8; assay type: cell-based; conditions: Homo sapiens, TMD8, TMD-8 cells, 72 hours treatment
Description: (§1) Cell survival was determined by the MTS assay. Briefly, cells were plated in a 96-well plate at 2,000-10,000 cells per well, cultured for 24 hours in complete growth medium, and then treated with various drugs and drug combinations for 72 hours. MTS/PMS was added and incubated for 4 hour, followed by assessment of cell viability using the microplate reader (absorbance at 490 nm). Data were normalized to untreated controls and analyzed with Microsoft Excel.

Rec-1 = test: Anti Proliferation Assay (MTS), Rec-1; assay type: cell-based; conditions: Homo sapiens, Rec1, Rec-1 cells, 72 hours treatment
Description: as §1

Full-length inactive BTK = Full-length inactive BTK (Homo sapiens, UniProt Q06187); test: BTK Kinase Activity Assay; assay type: biochemical; conditions: AlphaScreen, 25 μM ATP, 30 minute pre-incubation
Description: BTK Kinase Activity Assay
After a 30 minute pre-incubation at room temperature, the kinase reaction was initiated by the addition of 5 μl of an activation mixture diluted in assay buffer containing biotinylated PLCγ2 peptide, DOPS/DOPC, PtdIns(3,4,5)P3, and ATP for final concentrations of 100 nM biotinylated PLCγ2, 5.5 μM DOPS, 5.5 μM DOPC, 0.5 μM PtdIns(3,4,5)P3, and 25 μM ATP. The plates were incubated for 60 minutes at room temperature. The reactions were stopped in the dark by the addition of 10 μl stop/detection mixture prepared in assay buffer containing EDTA and AlphaScreen™ Streptavidin Donor and anti-pTYR100 Acceptor beads. The final concentrations were 10 mM EDTA and 500 ng/well of both AlphaScreen™ (Amplified Luminescent Proximity Homogeneous Assay) technology donor and acceptor beads. Assay plates were incubated for 60 minutes at room temperature in the dark, and the plates were read on a Perkin Elmer Envision Multilabel plate reader (excitation wavelength: […], emission wavelength: 570 nm).

T1 sequence (Q06187 whole entry C481S): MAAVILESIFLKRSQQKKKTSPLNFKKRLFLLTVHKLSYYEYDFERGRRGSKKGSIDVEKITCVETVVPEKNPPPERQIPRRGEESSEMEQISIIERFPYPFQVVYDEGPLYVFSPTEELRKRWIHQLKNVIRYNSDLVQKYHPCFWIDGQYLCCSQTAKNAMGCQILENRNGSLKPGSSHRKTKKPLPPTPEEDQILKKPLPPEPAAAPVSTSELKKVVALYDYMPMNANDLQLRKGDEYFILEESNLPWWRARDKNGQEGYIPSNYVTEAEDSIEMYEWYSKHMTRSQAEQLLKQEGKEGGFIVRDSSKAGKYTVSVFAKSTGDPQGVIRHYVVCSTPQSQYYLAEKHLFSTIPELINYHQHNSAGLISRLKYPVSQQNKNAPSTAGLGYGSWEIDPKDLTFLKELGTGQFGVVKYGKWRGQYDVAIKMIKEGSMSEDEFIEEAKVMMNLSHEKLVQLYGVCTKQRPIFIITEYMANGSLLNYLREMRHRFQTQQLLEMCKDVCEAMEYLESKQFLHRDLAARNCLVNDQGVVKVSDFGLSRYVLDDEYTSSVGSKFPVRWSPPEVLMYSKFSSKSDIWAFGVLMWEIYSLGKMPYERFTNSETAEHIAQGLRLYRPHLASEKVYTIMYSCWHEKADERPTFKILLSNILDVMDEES
Sequence of Full-length inactive BTK (Q06187 whole entry): as the sequence (Q06187 whole entry C481S) above, with S481C counted along it

SMILES	BTK (C481S) (% inhibition) (Full-length BTKC481S)	IC50 (Full-length inactive BTK)	IC50 (TMD-8)	IC50 (Rec-1)
CN1C[C@H](CNc2ncc3c4n[nH]cc4c(=O)n(-c4ccccc4F)c3n2)Oc2ccccc21 [Compound 343, 5-(2-fluorophenyl)-7-({[(2S)-4-methyl-3,4-dihydro-2H-1,4-benzoxazin-2-yl]methyl}amino)-2,5-dihydro-4H-pyrazolo[3′,4′:4,5]pyrido[2,3-d]pyrimidin-4-one]	100%	14 nM	0.6 µM	1.4 µM
O=c1[nH]nc2c3cnc(NCC4COc5ccccc5O4)nc3n(-c3ccccc3)cc1-2 (stereo not shown) [Compound 356, 7-(((2,3-dihydrobenzo[b][1,4]dioxin-2-yl)methyl)amino)-5-phenyl-2H-pyrazolo[3′,′:4,5]pyrido[2,3-d]pyrimidin-3(5H)-one]	53.7%	330 nM	23 µM	18.5 µM
Cc1[nH]nc2c1c(=O)n(-c1ccccc1)c1nc(NC[C@H]3COc4ccccc4O3)ncc21 [Compound 210, 7-{[(2S)-2,3-dihydro-1,4-benzodioxin-2-ylmethyl]amino}-3-methyl-5-phenyl-2,5-dihydro-4H-pyrazolo[3′,′:4,5]pyrido[2,3-d]pyrimidin-4-one]	73.3%	140 nM	7.1 µM	6.8 µM
O=c1c2c[nH]nc2c2cnc(NCC3CNc4ccccc4O3)nc2n1-c1ccccc1F (stereo not shown) [Compound 346, 7-[(3,4-dihydro-2H-1,4-benzoxazin-2-ylmethyl)amino]-5-(2-fluorophenyl)-2,5-dihydro-4H-pyrazolo[3′,4′:4,5]pyrido[2,3-d]pyrimidin-4-one]	85.2%	33 nM	9.6 µM	32 µM
Cc1c2c(=O)[nH]nc-2c2cnc(NC[C@H]3COc4ccccc4O3)nc2n1-c1ccccc1 [Compound 359, 7-{[(2S)-2,3-dihydro-1,4-benzodioxin-2-ylmethyl]amino}-4-methyl-5-phenyl-2,5-dihydro-3H-pyrazolo[3′,′:4,5]pyrido[2,3-d]pyrimidin-3-one]	59%	33 nM	27 µM	23.7 µM
O=c1c2c[nH]nc2c2cnc(NCC3COc4ccccc4O3)nc2n1-c1ccccc1 (stereo not shown) [Compound 14, 7-(((2,3-dihydrobenzo[b][1,4]dioxin-2-yl)methyl)amino)-5-phenyl-2H-pyrazolo[3′,′:4,5]pyrido[2,3-d]pyrimidin-4(5H)-one]	92.8%	240 nM	4 µM	4.3 µM

Second part, led by results:

BTK (C481S) (% inhibition) (Full-length BTKC481S)	IC50 (Full-length inactive BTK)	SMILES	IC50 (TMD-8)	IC50 (Rec-1)
98.2%	38 nM	CN(CC1COc2ccccc2O1)c1ncc2c3[nH]nc(N)c3c(=O)n(-c3ccccc3)c2n1 (stereo not shown) [Compound 223, 3-amino-7-[(2,3-dihydro-1,4-benzodioxin-2-ylmethyl)(methyl)amino]-5-phenyl-1,5-dihydro-4H-pyrazolo[3′,4′:4,5]pyrido[2,3-d]pyrimidin-4-one]	11.3 µM	6.2 µM
99.2%	34 nM	CN1CC(CNc2ncc3c4n[nH]cc4c(=O)n(-c4ccccc4F)c3n2)Oc2ccccc21 (stereo not shown) [Compound 229, 5-(2-fluorophenyl)-7-(((4-methyl-3,4-dihydro-2H-benzo[b][1,4]oxazin-2-yl)methyl)amino)-2H-pyrazolo[3′,4′:4,5]pyrido[2,3-d]pyrimidin-4(5H)-one]	1.4 µM	2.6 µM
36.1%	4.6 nM	CN1C[C@H](CNc2ncc3c4[nH]nc(N)c4c(=O)n(-c4ccccc4)c3n2)Oc2cc(F)ccc21 [Compound 345, 3-amino-7-({[(2S)-7-fluoro-4-methyl-3,4-dihydro-2H-1,4-benzoxazin-2-yl]methyl}amino)-5-phenyl-1,5-dihydro-4H-pyrazolo[3′,4′:4,5]pyrido[2,3-d]pyrimidin-4-one]	3.2 µM	14.7 µM
101%	11 nM	CN(C[C@H]1CN(C)c2ccccc2O1)c1ncc2c3[nH]nc(N)c3c(=O)n(-c3ccccc3F)c2n1 [Compound 342, 3-amino-5-(2-fluorophenyl)-7-(methyl{[(2R)-4-methyl-3,4-dihydro-2H-1,4-benzoxazin-2-yl]methyl}amino)-1,5-dihydro-4H-pyrazolo[3′,4′:4,5]pyrido[2,3-d]pyrimidin-4-one]	0.7 µM	2.6 µM
